Laboratory results reported in ChEMBL document CHEMBL4819047, “Discovery of a new class of multi-target heterocycle piperidine derivatives as potential antipsychotics with pro-cognitive effect” (Bioorg Med Chem Lett, 2021).

Experiments:
[1] = target: 5-hydroxytryptamine receptor 6 (Homo sapiens, UniProt P50406)
[2] = target: T1, Alpha-1A adrenergic receptor (Homo sapiens, UniProt P35348)
T1 sequence (P35348 whole entry): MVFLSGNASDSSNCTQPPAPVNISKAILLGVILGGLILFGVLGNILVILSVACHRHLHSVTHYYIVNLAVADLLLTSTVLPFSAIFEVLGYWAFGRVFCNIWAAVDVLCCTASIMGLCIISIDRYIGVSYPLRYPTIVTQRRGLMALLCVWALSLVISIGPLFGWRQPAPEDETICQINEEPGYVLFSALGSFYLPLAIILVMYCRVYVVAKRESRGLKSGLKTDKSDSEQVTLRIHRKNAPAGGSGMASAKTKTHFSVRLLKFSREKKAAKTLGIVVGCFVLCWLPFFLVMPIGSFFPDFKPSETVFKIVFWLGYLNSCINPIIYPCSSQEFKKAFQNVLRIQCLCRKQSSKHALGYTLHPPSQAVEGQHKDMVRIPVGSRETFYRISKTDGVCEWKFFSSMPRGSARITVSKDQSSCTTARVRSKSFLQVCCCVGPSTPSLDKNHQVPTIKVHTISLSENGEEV
Description: Binding affinity to alpha1 adrenoceptor (unknown origin)

[3] = target: T2, 5-hydroxytryptamine receptor 2C (Homo sapiens, UniProt P28335)
T2 sequence (P28335 whole entry): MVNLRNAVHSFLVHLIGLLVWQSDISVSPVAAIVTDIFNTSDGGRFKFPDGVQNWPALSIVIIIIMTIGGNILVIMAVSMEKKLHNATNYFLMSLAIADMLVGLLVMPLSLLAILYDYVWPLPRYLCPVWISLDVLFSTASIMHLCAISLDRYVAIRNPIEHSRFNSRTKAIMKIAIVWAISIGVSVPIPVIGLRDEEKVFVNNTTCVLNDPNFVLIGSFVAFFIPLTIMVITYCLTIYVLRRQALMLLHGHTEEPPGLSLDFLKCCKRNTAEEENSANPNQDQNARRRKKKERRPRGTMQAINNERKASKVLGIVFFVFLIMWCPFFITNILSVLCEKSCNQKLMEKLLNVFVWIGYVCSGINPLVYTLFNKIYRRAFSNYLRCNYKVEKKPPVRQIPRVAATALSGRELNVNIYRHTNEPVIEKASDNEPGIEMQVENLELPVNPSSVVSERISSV

[4] = target: T3, 5-hydroxytryptamine receptor 2A (Homo sapiens, UniProt P28223)
T3 sequence (P28223 whole entry): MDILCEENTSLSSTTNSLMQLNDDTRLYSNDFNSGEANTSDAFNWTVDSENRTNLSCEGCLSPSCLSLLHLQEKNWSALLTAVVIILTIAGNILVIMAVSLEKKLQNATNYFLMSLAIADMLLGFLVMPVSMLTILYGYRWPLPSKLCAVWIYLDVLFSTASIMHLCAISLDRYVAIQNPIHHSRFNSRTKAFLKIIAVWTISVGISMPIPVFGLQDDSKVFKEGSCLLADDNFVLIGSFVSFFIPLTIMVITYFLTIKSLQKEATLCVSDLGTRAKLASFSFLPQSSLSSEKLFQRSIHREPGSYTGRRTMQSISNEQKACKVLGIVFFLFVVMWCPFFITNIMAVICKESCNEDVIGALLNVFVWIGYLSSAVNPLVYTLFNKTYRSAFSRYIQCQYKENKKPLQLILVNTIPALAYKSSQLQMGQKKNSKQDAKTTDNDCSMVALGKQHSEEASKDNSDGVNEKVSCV

Histamine H1 receptor = Histamine H1 receptor (Homo sapiens, UniProt P35367); format: ADME
Histamine H1 receptor, sequence (P35367 whole entry): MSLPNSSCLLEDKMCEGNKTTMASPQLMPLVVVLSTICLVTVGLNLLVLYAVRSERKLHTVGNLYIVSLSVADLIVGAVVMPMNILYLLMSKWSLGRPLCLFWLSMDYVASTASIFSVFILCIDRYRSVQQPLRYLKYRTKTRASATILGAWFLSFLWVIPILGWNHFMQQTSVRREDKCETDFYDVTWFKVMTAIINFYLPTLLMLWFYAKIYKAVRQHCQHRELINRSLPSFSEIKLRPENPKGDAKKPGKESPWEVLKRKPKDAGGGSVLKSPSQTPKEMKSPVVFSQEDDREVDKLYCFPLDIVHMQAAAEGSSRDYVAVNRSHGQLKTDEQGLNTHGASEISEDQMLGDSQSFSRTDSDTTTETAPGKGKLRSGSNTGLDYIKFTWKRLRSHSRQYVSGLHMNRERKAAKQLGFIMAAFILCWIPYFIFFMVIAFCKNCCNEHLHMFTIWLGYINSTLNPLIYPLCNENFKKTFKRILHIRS
Description: Binding affinity to histamine H1 receptor (unknown origin)

[5] = target: T4, 5-hydroxytryptamine receptor 1A (Homo sapiens, UniProt P08908)
T4 sequence (P08908 whole entry): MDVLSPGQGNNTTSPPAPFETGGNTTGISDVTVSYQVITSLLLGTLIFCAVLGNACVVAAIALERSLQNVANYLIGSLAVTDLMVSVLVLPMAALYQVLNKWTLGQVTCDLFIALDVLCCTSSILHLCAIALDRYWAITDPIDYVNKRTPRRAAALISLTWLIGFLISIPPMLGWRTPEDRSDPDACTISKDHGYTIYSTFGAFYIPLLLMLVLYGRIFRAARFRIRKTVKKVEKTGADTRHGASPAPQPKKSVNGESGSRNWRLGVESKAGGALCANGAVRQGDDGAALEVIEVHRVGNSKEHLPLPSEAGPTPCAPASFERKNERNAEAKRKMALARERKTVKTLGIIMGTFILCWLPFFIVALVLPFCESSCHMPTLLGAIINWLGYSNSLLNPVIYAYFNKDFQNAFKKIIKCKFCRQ

D(3) dopamine receptor = D(3) dopamine receptor (Homo sapiens, UniProt P35462)
D(3) dopamine receptor, sequence (P35462 whole entry): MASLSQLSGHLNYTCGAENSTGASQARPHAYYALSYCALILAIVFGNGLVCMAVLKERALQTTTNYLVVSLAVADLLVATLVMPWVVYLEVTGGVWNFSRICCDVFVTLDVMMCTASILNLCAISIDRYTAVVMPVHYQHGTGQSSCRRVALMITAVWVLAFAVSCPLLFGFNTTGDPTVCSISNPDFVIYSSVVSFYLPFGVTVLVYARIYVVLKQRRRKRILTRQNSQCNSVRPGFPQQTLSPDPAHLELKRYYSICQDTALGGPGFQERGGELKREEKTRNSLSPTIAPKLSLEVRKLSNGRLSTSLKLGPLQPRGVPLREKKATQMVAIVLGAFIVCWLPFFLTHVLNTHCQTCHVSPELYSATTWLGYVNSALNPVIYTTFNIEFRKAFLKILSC
Description: Binding affinity to dopamine D3 receptor (unknown origin)

D(2) dopamine receptor [6] = target: T5, D(2) dopamine receptor (Homo sapiens, UniProt P14416)
T5 sequence (P14416 whole entry): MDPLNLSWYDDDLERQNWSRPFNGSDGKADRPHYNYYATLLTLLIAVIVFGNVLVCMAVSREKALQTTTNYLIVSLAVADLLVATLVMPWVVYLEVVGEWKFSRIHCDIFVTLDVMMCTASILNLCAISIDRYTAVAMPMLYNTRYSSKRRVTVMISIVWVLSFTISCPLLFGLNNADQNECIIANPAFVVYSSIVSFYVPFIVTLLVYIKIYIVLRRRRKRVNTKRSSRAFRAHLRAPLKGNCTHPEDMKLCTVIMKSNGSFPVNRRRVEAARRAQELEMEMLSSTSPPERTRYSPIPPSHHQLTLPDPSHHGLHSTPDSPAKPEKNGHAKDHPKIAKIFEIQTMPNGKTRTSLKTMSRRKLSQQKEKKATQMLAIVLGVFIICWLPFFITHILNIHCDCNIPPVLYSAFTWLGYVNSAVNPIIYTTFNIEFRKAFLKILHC
Description: Binding affinity to dopamine D2 receptor (unknown origin)

Histamine H3 receptor = Histamine H3 receptor (Homo sapiens, UniProt Q9Y5N1)
Histamine H3 receptor, sequence (Q9Y5N1 whole entry): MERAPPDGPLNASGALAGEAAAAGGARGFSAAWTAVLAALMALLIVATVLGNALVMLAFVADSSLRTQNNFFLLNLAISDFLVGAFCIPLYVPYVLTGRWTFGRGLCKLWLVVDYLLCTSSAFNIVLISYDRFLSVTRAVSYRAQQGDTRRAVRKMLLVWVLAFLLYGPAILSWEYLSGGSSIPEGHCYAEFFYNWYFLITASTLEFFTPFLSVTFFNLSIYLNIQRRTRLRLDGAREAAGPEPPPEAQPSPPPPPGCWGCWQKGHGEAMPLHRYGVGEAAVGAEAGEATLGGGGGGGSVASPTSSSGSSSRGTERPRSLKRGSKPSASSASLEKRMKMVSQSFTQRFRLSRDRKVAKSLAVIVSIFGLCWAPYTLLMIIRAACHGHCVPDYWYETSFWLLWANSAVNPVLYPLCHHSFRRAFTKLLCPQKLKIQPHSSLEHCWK
Description: Binding affinity to histamine H3 receptor (unknown origin)

[7] = target: Voltage-gated inwardly rectifying potassium channel KCNH2 (Homo sapiens, UniProt Q12809)
Voltage-gated inwardly rectifying potassium channel KCNH2, sequence (Q12809 whole entry): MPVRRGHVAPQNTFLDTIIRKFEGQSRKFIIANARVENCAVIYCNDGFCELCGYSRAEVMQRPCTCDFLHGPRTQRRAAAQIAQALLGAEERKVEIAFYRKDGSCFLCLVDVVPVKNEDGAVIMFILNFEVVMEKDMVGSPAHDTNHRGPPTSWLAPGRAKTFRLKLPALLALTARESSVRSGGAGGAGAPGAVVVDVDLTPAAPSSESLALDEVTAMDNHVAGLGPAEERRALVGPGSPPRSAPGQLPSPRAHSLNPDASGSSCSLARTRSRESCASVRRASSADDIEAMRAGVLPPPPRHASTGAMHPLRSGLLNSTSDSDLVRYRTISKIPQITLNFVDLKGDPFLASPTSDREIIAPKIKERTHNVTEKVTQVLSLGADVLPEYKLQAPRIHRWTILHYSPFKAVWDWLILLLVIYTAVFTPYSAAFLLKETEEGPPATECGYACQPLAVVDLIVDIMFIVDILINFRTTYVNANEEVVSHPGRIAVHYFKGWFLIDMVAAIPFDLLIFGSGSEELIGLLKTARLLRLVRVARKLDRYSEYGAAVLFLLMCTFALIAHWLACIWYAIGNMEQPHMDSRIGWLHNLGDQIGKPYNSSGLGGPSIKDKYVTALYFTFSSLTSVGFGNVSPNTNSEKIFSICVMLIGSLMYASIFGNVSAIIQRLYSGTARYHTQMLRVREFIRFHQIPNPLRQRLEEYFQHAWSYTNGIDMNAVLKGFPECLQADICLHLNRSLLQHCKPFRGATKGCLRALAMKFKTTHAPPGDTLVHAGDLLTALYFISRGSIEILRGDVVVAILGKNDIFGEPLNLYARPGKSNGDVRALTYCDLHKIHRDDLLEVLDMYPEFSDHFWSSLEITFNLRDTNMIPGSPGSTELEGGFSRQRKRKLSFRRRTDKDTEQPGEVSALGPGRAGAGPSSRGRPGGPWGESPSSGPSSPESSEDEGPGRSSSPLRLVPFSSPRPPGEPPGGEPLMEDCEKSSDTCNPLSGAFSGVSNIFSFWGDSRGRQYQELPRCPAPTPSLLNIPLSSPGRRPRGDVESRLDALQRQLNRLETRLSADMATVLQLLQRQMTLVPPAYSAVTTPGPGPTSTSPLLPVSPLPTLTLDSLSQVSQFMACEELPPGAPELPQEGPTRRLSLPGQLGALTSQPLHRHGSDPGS
Description: Inhibition of human ERG by automated patch method relative to control

[8] = target: T3, 5-hydroxytryptamine receptor 2A; assay: Antagonist activity at 5-HT2A receptor (unknown origin); format: functional
D(2) dopamine receptor [9] = target: T5, D(2) dopamine receptor; assay: Antagonist activity at D2 receptor (unknown origin); format: functional
[10] = target: T4, 5-hydroxytryptamine receptor 1A; assay: Antagonist activity at 5-HT1A receptor (unknown origin); format: functional
Mus musculus [11] = species: Mus musculus; assay: animal or person; details: po
Description: Antipsychotic activity in po dosed mouse assessed as reduction in MK-801-induced hyperlocomotor activity

[12] = Therapeutic index, ratio of ED50 for induction of catalepsy in po dosed mouse to ED50 for antipsychotic activity in po dosed mouse assessed as reduction in MK-801-induced hyperlocomotor activity; format: toxicity, organism-based; details: in vivo, read-out: Ratio ED50
[13] = mouse, in vivo, po
Description: Induction of catalepsy in po dosed mouse by Horizontal grid and elevated bar test

[14] = Therapeutic index, ratio of ED50 for induction of catalepsy in po dosed mouse to ED50 for antipsychotic activity in po dosed mouse assessed as suppression of apomorphine-induced climbing; format: toxicity, organism-based; details: in vivo, read-out: Ratio ED50
Mus musculus [15] = species: Mus musculus; assay: animal or person; details: po; remark: listed apart in the source
Description: Antipsychotic activity in po dosed mouse assessed as suppression of apomorphine-induced climbing behaviour

Rattus norvegicus = species: Rattus norvegicus; assay: animal or person; details: po
Description: Antipsychotic activity in po dosed rat assessed as suppression in conditioned avoidance response by CAR test

5-hydroxytryptamine receptor 6, sequence (P50406 whole entry): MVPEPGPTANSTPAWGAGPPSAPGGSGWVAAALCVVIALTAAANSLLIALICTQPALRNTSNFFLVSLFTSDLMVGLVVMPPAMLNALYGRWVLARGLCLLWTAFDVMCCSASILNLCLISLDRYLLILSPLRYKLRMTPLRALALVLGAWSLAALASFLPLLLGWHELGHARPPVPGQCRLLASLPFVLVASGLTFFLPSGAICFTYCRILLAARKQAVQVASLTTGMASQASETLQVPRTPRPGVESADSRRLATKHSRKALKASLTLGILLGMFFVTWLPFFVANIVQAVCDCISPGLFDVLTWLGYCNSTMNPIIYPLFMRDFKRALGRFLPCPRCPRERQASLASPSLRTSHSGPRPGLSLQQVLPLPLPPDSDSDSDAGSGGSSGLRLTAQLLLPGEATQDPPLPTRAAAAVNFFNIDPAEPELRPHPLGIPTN

SMILES	Ki [4] [µM]	Ki [5] [µM]	Ki (D(2) dopamine receptor [6]) [µM]	Ki (Histamine H3 receptor) [µM]	other results
Cc1cc(=O)oc2c(Cl)c(OCCCCN3CCC(c4noc5cc(F)ccc45)CC3)ccc12	0.0003	0.0033	0.0026		Ki [1]: 0.228 µM; Ki [2]: 2.57 µM; Ki [3]: 1.7 µM; Ki (Histamine H1 receptor): 1.13 µM; Ki (D(3) dopamine receptor): 0.0043 µM
O=c1ccc(OCCCN2CCC(c3noc4cc(F)ccc34)CC2)nn1-c1c(F)cccc1F	0.0003	0.0059	0.005		Ki [2]: 0.337 µM; Ki [3]: 1.58 µM; Ki (Histamine H1 receptor): 2 µM; Ki (D(3) dopamine receptor): 0.0357 µM
O=C(CCCN1CCC(c2noc3cc(F)ccc23)CC1)c1cc2c3c(c1)CCN3C(=O)CC2	0.0007	0.0086	0.0029		Ki [1]: 0.0056 µM; Ki [2]: 0.0431 µM; Ki [3]: 0.616 µM; Ki (Histamine H1 receptor): 0.63 µM; Ki (D(3) dopamine receptor): 0.0017 µM
CN1CCN(Cc2ccc(OCCCCN3CCC(c4noc5cc(F)ccc45)CC3)cc2)CC1	0.0043	0.0124	0.0019	0.0092	Ki [1]: 0.123 µM; Ki [2]: 0.354 µM; Ki [3]: 0.426 µM; IC50 [7]: 1.06 µM; Ki (Histamine H1 receptor): 0.642 µM; Ki (D(3) dopamine receptor): 0.0376 µM
Fc1ccc2c(C3CCN(CCCOc4ccc(CN5CCCC5)cc4)CC3)noc2c1	0.0086	0.0816	0.0122	0.0937	
Fc1ccc2c(C3CCN(CCCOc4ccc(CN5CCOCC5)cc4Cl)CC3)noc2c1	0.0057	0.105	0.0025	0.149	
Fc1ccc2c(C3CCN(CCCCOc4ccc(CN5CCOCC5)cc4)CC3)noc2c1	0.0045	0.0954	0.002	0.153	
Cc1cc(OCCCN2CCC(c3noc4cc(F)ccc34)CC2)ccc1CN1CCCC1	0.0115	0.0893	0.0126	0.113	
CN1CCN(CCc2ccc(OCCCN3CCC(c4noc5cc(F)ccc45)CC3)cc2)CC1	0.0086	0.0164		0.271	
Fc1ccc2c(C3CCN(CCCOc4ccc(CN5CCCCC5)cc4F)CC3)noc2c1	0.0065	0.0906	0.0103	0.27	
Fc1ccc2c(C3CCN(CCCOc4ccc(CN5CCOCC5)cc4F)CC3)noc2c1	0.0056	0.1	0.0019	0.195	
CC1CCN(CCc2ccc(OCCCN3CCC(c4noc5cc(F)ccc45)CC3)cc2)CC1	0.0429	0.0096	0.0074	0.0119	
Fc1ccc2c(C3CCN(CCCOc4ccc(CCN5CCCCC5)cc4)CC3)noc2c1	0.0094	0.0074	0.0097	0.0134	Ki [1]: 0.149 µM; Ki [2]: 0.536 µM; Ki [3]: 0.753 µM; IC50 [7]: 2.29 µM; Ki (Histamine H1 receptor): 1.02 µM; Ki (D(3) dopamine receptor): 0.0152 µM
CC1CCN(CCc2ccc(OCCCCN3CCC(c4noc5cc(F)ccc45)CC3)cc2)CC1	0.0051	0.0044	0.0027	0.0158	
Fc1ccc2c(C3CCN(CCCOc4ccc(CN5CCOCC5)c(Cl)c4)CC3)noc2c1	0.0063	0.152	0.0054	0.163	
Fc1ccc2c(C3CCN(CCCOc4ccc(CN5CCCCC5)cc4)CC3)noc2c1	0.0051	0.0897	0.0108	0.27	
CN1CCN(Cc2ccc(OCCCN3CCC(c4noc5cc(F)ccc45)CC3)cc2)CC1	0.0047	0.0119	0.0017	0.0082	Ki [1]: 0.0933 µM; Ki [2]: 0.332 µM; Ki [3]: 0.573 µM; IC50 [7]: 1.56 µM; Ki (Histamine H1 receptor): 0.719 µM; Ki (D(3) dopamine receptor): 0.0232 µM
Fc1ccc2c(C3CCN(CCCOc4ccc(CCN5CCOCC5)cc4)CC3)noc2c1	0.0084	0.0056	0.0105		IC50 [8]: 0.186 µM; Ki [1]: 0.141 µM; Ki [2]: 0.438 µM; IC50 (D(2) dopamine receptor [9]): 0.0113 µM; Ki [3]: 0.61 µM; IC50 [10]: 0.247 µM; IC50 [7]: 2.41 µM; Ki (Histamine H1 receptor): 0.968 µM
COc1cc(CN2CCCCC2)ccc1OCCCN1CCC(c2noc3cc(F)ccc23)CC1	0.009	0.0677	0.0095	0.256	
Fc1ccc2c(C3CCN(CCCOc4ccc(CN5CCOCC5)cc4)CC3)noc2c1	0.0044	0.0855	0.0015	0.166	
COc1cc(CN2CCOCC2)ccc1OCCCN1CCC(c2noc3cc(F)ccc23)CC1	0.0049	0.112	0.0026	0.147	
Fc1ccc2c(C3CCN(CCCOc4ccc(CN5CCCCC5)c(F)c4)CC3)noc2c1	0.0062	0.0921	0.0116	0.312	
COc1cc(CN2CCCC2)ccc1OCCCN1CCC(c2noc3cc(F)ccc23)CC1	0.0108	0.0779	0.0062	0.151	
Cc1cc(OCCCN2CCC(c3noc4cc(F)ccc34)CC2)ccc1CN1CCOCC1	0.0051	0.1	0.0031	0.164	
Fc1ccc2c(C3CCN(CCCOc4ccc(CN5CCOCC5)c(F)c4)CC3)noc2c1	0.0052	0.0922	0.002	0.187	
Fc1ccc2c(C3CCN(CCCOc4ccc(CN5CCCC5)cc4Cl)CC3)noc2c1	0.0101	0.0792	0.0141	0.125	
O=C(CCCN1CCC(O)(c2ccc(Cl)cc2)CC1)c1ccc(F)cc1 [HALOPERIDOL]					ED50 (Mus musculus [11]): 0.1 mg/kg; selectivity ratio [12]: 2.9; ED50 [13]: 0.3 mg/kg; selectivity ratio [14]: 3.6; ED50 (Mus musculus [15]): 0.09 mg/kg
Cc1nc2n(c(=O)c1CCN1CCC(c3noc4cc(F)ccc34)CC1)CCCC2 [RISPERIDONE]					ED50 (Mus musculus [11]): 0.04 mg/kg; ED50 [13]: 1.6 mg/kg; ED50 (Mus musculus [15]): 0.02 mg/kg; ED50 (Rattus norvegicus): 0.6 mg/kg
